Test results published in patent US20220133714A1, “EXTRACELLULAR MATRIX MODULATING AGENT” (KOWA COMPANY, LTD., priority 2019, published 2022).

Tests used:
human fibroblasts = settings: cited from earlier work
[1] = system: corneal endothelial cells; settings: cited from earlier work; for apoptosis and endothelial-mesenchymal transition (EMT) of corneal endothelial cells / cell adhesion, migration, proliferation and wound healing: in vitro and in vivo animal models
[2] = system: corneal endothelial cells of FECD patients; assay: Western blot protein expression in FECD specimens; type: cell-based, human; settings: 30 μM, 72 hours of incubation
Experimental: FIG. 5 illustrates Western Blot analysis of fibronectin in corneal endothelial cells of FECD patients (n=4); equal loading of samples was verified by β-actin.
(§1) Endothelial-Descemet membrane (EDM)-complexes from normal donor corneas and from FECD patients during DMEK surgery were prepared. EDM scrolls were dissected into two halves and incubated for 24-72 hours in CorneaMax storage medium (Eurobio) with or without K-115 (Selleck Chemicals). Gene expression analysis was performed using specific real-time PCR arrays for FECD-associated candidate genes as well as RT2 Profiler PCR Arrays (Quiagen). Array results were again validated using gene-specific real-time PCR assays. Protein expression analysis was performed by Western blotting.
Then, gene expression levels in FECD specimens were analyzed, which were incubated in 30 μM K-115 for 24 hours. […] In order to identify additional matrix genes that may be transcriptionally regulated by K-115, gene expression profiling using a Human Extracellular Matrix and Adhesion Molecule PCR array were performed. With this approach, downregulation of fibronectin and collagen types I and III and detected additional downregulation of vitronectin and collagen types V and XIV in corneal endothelial cells from FECD patients (data not shown) were confirmed.

[3] = system: corneal endothelial cells of FECD patients; assay: Real-time PCR expression of FECD-associated matrix genes in FECD patient endothelial-Descemet membrane specimens; type: cell-based, human; settings: 30 μM, 24 hours, vs untreated controls
Experimental: (§2) FIG. 4 illustrates Relative expression of FECD-associated matrix genes in corneal endothelial cells of FECD patients (n=20) without and with incubation in 30 μM K-115 for 24 h. Gene expression was analyzed by quantitative real-time PCR and normalized to GAPDH (*p<0.01, **p<0.001). Endothelial-Descemet membrane (EDM)-complexes from normal donor corneas and from FECD patients during DMEK surgery were prepared. EDM scrolls were dissected into two halves and incubated for 24-72 hours in CorneaMax storage medium (Eurobio) with or without K-115 (Selleck Chemicals). Gene expression analysis was performed using specific real-time PCR arrays for FECD-associated candidate genes as well as RT2 Profiler PCR Arrays (Quiagen). Array results were again validated using gene-specific real-time PCR assays. Protein expression analysis was performed by Western blotting. Then, gene expression levels in FECD specimens were analyzed, which were incubated in 30 μM K-115 for 24 hours. […] In order to identify additional matrix genes that may be transcriptionally regulated by K-115, gene expression profiling using a Human Extracellular Matrix and Adhesion Molecule PCR array were performed. With this approach, downregulation of fibronectin and collagen types I and III and detected additional downregulation of vitronectin and collagen types V and XIV in corneal endothelial cells from FECD patients (data not shown) were confirmed.

[4] = system: corneal endothelial cells from FECD patients; assay: Human Extracellular Matrix and Adhesion Molecule PCR array gene expression profiling; type: cell-based; settings: data not shown
Experimental: as §2, with “Endothelial-Descemet” for “FIG. 4 illustrates Relative expression of FECD-associated matrix genes in corneal endothelial cells of FECD patients (n=20) without and with incubation in 30 μM K-115 for 24 h. Gene expression was analyzed by quantitative real-time PCR and normalized to GAPDH (*p<0.01, **p<0.001). Endothelial-Descemet”

[5] = system: corneal endothelial cells of normal donors; assay: Real-time PCR expression of FECD-associated matrix genes in normal donor endothelial-Descemet membrane specimens; type: cell-based, human; settings: normal EDM specimens, 24 h
Experimental: FIG. 3 illustrates Relative expression of FECD-associated matrix genes in corneal endothelial cells of normal donors (n=6) without and with incubation in 10-100 μM K-115 for 24 h. Gene expression was analyzed by quantitative real-time PCR and normalized to GAPDH (*p<0.01).
as §1

Structure (SMILES): O=S(=O)(c1cccc2cnccc12)N1CCCNCC1 [Fasudil]
- expression of α-SMA, MLCP, LIMK1, p-cofilin, collagen I, and collagen III protein (human fibroblasts): attenuated

Structure (SMILES): Cc1cncc2cccc(S(=O)(=O)N3CCCNC[C@@H]3C)c12 [H-1152]
- apoptosis and endothelial-mesenchymal transition (EMT) of corneal endothelial cells [1]: suppressed
- cell adhesion, migration, proliferation and wound healing [1]: stimulated

Structure (SMILES): C[C@H]1CNCCCN1S(=O)(=O)c1cccc2cncc(F)c12 [K-115, (S)-(−)-1-(4-fluoro-5-isoquinolinesulfonyl)-2-methyl-1,4-homopiperazine]
- collagen type III protein level [2]: significantly downregulated
- fibronectin protein level ([2]; Western blot): significantly downregulated
- TGFBI gene expression [3]: upregulated
- agrin gene expression [3]: significant reduction
- collagen type I gene expression [3]: significant reduction
- collagen type III gene expression [3]: significant reduction
- collagen type XVI gene expression [3]: upregulated
- fibronectin gene expression [3]: significant reduction
- integrin a4 (ITGA4) gene expression [3]: upregulated
- α-SMA gene expression [3]: significant reduction
- EMT markers [1]: downregulation
- endothelial cell proliferation and wound healing [1]: stimulating
- functional endothelial markers [1]: upregulation
- collagen type I gene expression (PCR array) [4]: downregulation
- collagen type III gene expression (PCR array) [4]: downregulation
- collagen type V gene expression (PCR array) [4]: downregulation
- collagen type XIV gene expression (PCR array) [4]: downregulation
- fibronectin gene expression (PCR array) [4]: downregulation
- vitronectin gene expression (PCR array) [4]: downregulation
- agrin gene expression ([5]; 10-100 μM, normalized to GAPDH): significantly downregulated
- collagen type I gene expression ([5]; 10-100 μM, normalized to GAPDH): significantly downregulated
- collagen type III gene expression ([5]; 10-100 μM, normalized to GAPDH): significantly downregulated
- fibronectin gene expression ([5]; 10-100 μM, normalized to GAPDH): significantly downregulated
- α-smooth muscle actin (α-SMA) gene expression ([5]; 10-100 μM, normalized to GAPDH): significantly downregulated
- β-actin gene expression ([5]; 10-100 μM, normalized to GAPDH): significantly downregulated
- most effective concentration for downregulation of matrix genes ([5]; tested 10-100 μM): 30 µM

Structure (SMILES): O=C(NCc1ccccc1)c1csc(Nc2ccncn2)n1 [Thiazovivin]
- apoptosis and endothelial-mesenchymal transition (EMT) of corneal endothelial cells [1]: suppressed
- cell adhesion, migration, proliferation and wound healing [1]: stimulated

Structure (SMILES): C[C@@H](N)[C@H]1CC[C@H](C(=O)Nc2ccncc2)CC1 [Y-27632]
- apoptosis and endothelial-mesenchymal transition (EMT) of corneal endothelial cells [1]: suppressed
- cell adhesion, migration, proliferation and wound healing [1]: stimulated
